For one compound, Activity results are on record in ChEMBL document CHEMBL1149856, “Insulinomimetic effect of kaempferol 3-neohesperidoside on the rat soleus muscle” (2008).

The subject of test [1] is Soleus muscle. The test can be described thus: Inhibition of 14C-glucose uptake in Wistar rat soleus muscle at 1 nM in presence of LY-294002. The format is functional, tissue-based.
Test [2] has as its system Soleus muscle. The test can be described thus: Inhibition of 14C-glucose uptake in Wistar rat soleus muscle at 1 nM in presence of RO318220. It is filed as functional, tissue-based.
Test [3] concerns Soleus muscle. As to the kind of experiment: Stimulation of 14C-glucose uptake in Wistar rat soleus muscle at 1 nM in presence of PD-98059. It is filed as functional, tissue-based.
In test [4] the test system is Soleus muscle. The test can be described thus: Stimulation of 14C-glucose uptake in Wistar rat soleus muscle at 1 nM in presence of cycloheximide. It is filed as functional, tissue-based.
The next test has as its system Rattus norvegicus. As to the kind of experiment: Increase in glycogen level in diabetic Wistar rat soleus muscle at 100 mg/kg after 24 hrs. The format is functional.
Test [5] is described as follows: Stimulation of 14C-glucose uptake in Wistar rat soleus muscle at 1 nM.
Test [6] can be described thus: Stimulation of 14C-glucose uptake in Wistar rat soleus muscle at 100 nM.

Structures are written as SMILES. Activity calls are given as the source filed them. The calls are words filed in the database; no cut-off is given here.

For the compound `C[C@H]1O[C@H](O[C@H]2[C@H](Oc3c(-c4ccc(O)cc4)oc4cc(O)cc(O)c4c3=O)O[C@H](CO)[C@@H](O)[C@@H]2O)[C@@H](O)[C@@H](O)[C@@H]1O`, the result in the test on Soleus muscle [1], in the test on Soleus muscle [2], in the test on Soleus muscle [3] and with Soleus muscle [4] was Active. For the same compound, the Activity in the test with Rattus norvegicus is reported as 380%; in test [5], 35%; in test [6], 21%.
